Patent publication US12509460B2 (Skyhawk Therapeutics, Inc., priority 2019, dated 2025)
Like-named read-outs stand apart in the source and are kept apart here.

What was measured:
[1] = test system: SMN protein in spinal muscular atrophy (SMA) patient fibroblasts (GM03813, Coriell); experiment: SMN protein assay, Mesoscale Discovery (MSD); format: cell-based, human; settings: for EC50: read-out: SMN2 protein EC50
Outline: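 SMA patient fibroblasts (GM03813) seeded at 7000 cells/well and exposed to compound at 2.5 μM to 0.6 nM for 48 hours. Lysates assayed for SMN by MSD immunoassay, with absolute SMN amount calculated from a per-plate SMN standard curve (1 μg/ml to 19.5 pg/ml).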

[2] = test system: SMN FL and SMN Δ7 in spinal muscular atrophy (SMA) patient fibroblasts (GM03813, Coriell); experiment: Quantitative splicing assay (SMN), qPCR; format: cell-based, human; settings: Homo sapiens, Fibroblast, 24 h, read-out: SMN2 Splicing FL EC50
Method: Spinal muscular atrophy (SMA) patient fibroblasts (GM03813, Coriell) are plated in 96-well plates at 50,000 cells/well. […] Treated cells are lysed and cDNA synthesized using the Fast Advanced Cells-to-Ct kit (Thermofisher A35378) according to the manufacturer's instructions. 2 μL of each cDNA are used in qPCR reactions. […] Reactions are run in a Quant Studio 6 qPCR instrument with default settings.

[3] = test system: MDR1; experiment: Blood-brain-barrier (BBB) penetration potential via MDCK-MDR1 permeability assay; settings: dog, MDCK-MDR1, pH 7.4, MDCK-MDR1: Efflux
[4] = test system: MDR1-MDCK cell monolayers; experiment: as above
[5] = test system: MDR1 (P-gp); experiment: as above; settings: dog; for Papp A→B at 120 min, 5 μM: MDCK-MDR1, pH 7.4, MDCK-MDR1: Papp A-B; for Papp B→A at 120 min, 5 μM: MDCK-MDR1, pH 7.4, MDCK-MDR1: Papp B-A
[6] = test system: mHTT protein in GM04724 (CAG 70/20) Huntington's disease patient lymphoblast cells; experiment: mHTT protein assay, 2B7-MW1 assay via Mesoscale Discovery (MSD); format: cell-based, human
Outline: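 Patient lymphoblasts treated 48 h with compound from 10 μM to 0.6 nM. mHTT quantified by MSD 2B7-MW1 immunoassay, whose signal depends on polyQ expansion and HTT size. Viability measured on a replicate plate by CellTiter Glo.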

[7] = SMA patient fibroblasts GM03813, 48 hours, MSD
[8] = SMA patient fibroblasts GM03813, 24 h, qPCR
[9] = GM04724 Huntington's disease patient lymphoblasts
[10] = SMA patient fibroblasts (GM03813), 48 hours
[11] = SMA patient fibroblasts (GM03813)
[12] = GM04724 (CAG 70/20) Huntington's disease patient lymphoblasts

Row | SMILES | SMN2 protein EC50 [1, 7] | EC50 [2, 8] [nM] | efflux ratio at 120 min, 5 μM ([3]; efflux ratio) | MDCK-MDR1: % Recov A-B ([4]; A-B direction) [%] | MDCK-MDR1: % Recov B-A ([4]; B-A direction) [%] | Papp A→B at 120 min, 5 μM ([5]; A-B direction) [×10⁻⁶ cm/s] | Papp B→A at 120 min, 5 μM ([5]; B-A direction) [×10⁻⁶ cm/s] | EC50 [6, 9] [nM] | EC50 [1, 7] [nM] | EC50 [1, 10] [nM] | EC50 [2, 11] [nM] | efflux ratio at 120 min, 5 μM [3] | MDCK-MDR1: % Recov A-B ([4]; A-B) [%] | MDCK-MDR1: % Recov B-A ([4]; B-A) [%] | Papp A→B at 120 min, 5 μM ([5]; A-B) [×10⁻⁶ cm/s] | Papp B→A at 120 min, 5 μM ([5]; B-A) [×10⁻⁶ cm/s] | EC50 [6, 12] [nM] | mHTT protein EC50 [6, 12]
1 | CN(c1ccc(-c2ccc(C#N)cc2O)nn1)[C@@H]1C[C@H]2CC[C@H](N2)[C@@H]1F [Compound 38A, 4-(6-(((1S,2S,3R,5R)-2-fluoro-8-azabicyclo[3.2.1]octan-3-yl)(methyl)amino)pyridazin-3-yl)-3-hydroxybenzonitrile] | E (501 ≤ E ≤ 10.000) | 16 to 50 | 3 | 83 | 85 | 13 | 39.2 | 101 to 500 |  |  |  |  |  |  |  |  |  | 
2 | CN(c1ccc(-c2ccc(-c3ccccn3)cc2O)nn1)[C@@H]1C[C@H]2CCC[C@H](N2)[C@@H]1F [Compound 23A, 2-(6-(((1S,2S,3R,5R)-2-fluoro-9-azabicyclo[3.3.1]nonan-3-yl)(methyl)amino)pyridazin-3-yl)-5-(pyridin-2-yl)phenol] |  | 51 to 100 | 10 | 64 | 83 | 3.33 | 34.9 | 51 to 100 | 16 to 50 |  |  |  |  |  |  |  |  | 
3 | CC#Cc1ccc(-c2ccc(N(C)[C@@H]3C[C@H]4CC[C@H](N4)[C@@H]3F)nn2)c(O)c1 (single isomer, unassigned) [Compound 30A] |  | 51 to 100 | 2 | 35 | 55 | 11.1 | 19.7 | 16 to 50 | 0.01 to 15 |  |  |  |  |  |  |  |  | 
4 | Cc1nc2cc(-c3ccc(N(C)[C@H]4C[C@@H]5CC[C@@H](N5)[C@H]4F)nn3)c(O)cc2c(=O)n1CC(F)(F)F [Compound 113B, 7-(6-(((1R,2R,3S,5S)-2-fluoro-8-azabicyclo[3.2.1]octan-3-yl)(methyl)amino)pyridazin-3-yl)-6-hydroxy-2-methyl-3-(2,2,2-trifluoroethyl)quinazolin-4(3H)-one] |  |  |  |  |  |  |  |  |  | 0.01 to 15 | 16 to 50 | 232 | 101 | 123 | 0.3 | 68.4 | 101 to 500 | 
5 | CNC(=O)c1ccc(-c2ccc(N(C)[C@H]3C[C@@H]4CC[C@@H](N4)[C@H]3F)nn2)c(O)c1 (single isomer, unassigned) [Compound 77B] |  | 51 to 100 | 144 | 102 | 106 | 0.28 | 40.3 | 101 to 500 | 101 to 500 |  |  |  |  |  |  |  |  | 
6 | CN(c1ccc(-c2cc3ncn(CC(F)(F)F)c(=O)c3cc2O)nn1)[C@@H]1C[C@H]2CCC[C@H](N2)[C@@H]1F [Compound 58A, 7-(6-(((1S,2S,3R,5R)-2-fluoro-9-azabicyclo[3.3.1]nonan-3-yl)(methyl)amino)pyridazin-3-yl)-6-hydroxy-3-(2,2,2-trifluoroethyl)quinazolin-4(3H)-one] |  | 101 to 500 | 201 | 86 | 89 | 0.36 | 71.4 | 101 to 500 | 0.01 to 15 |  |  |  |  |  |  |  |  | 
7 | Cc1cc(=O)c2cc(-c3ccc(N(C)[C@@H]4C[C@H]5CC[C@@H]([C@@H]4F)N5C)nn3)c(O)cc2o1 [Compound 100A, 6-(6-(((1S,2S,3R,5R)-2-fluoro-8-methyl-8-azabicyclo[3.2.1]octan-3-yl)(methyl)amino)pyridazin-3-yl)-7-hydroxy-2-methyl-4H-chromen-4-one] |  |  |  |  |  |  |  |  |  | 51 to 100 | 101 to 500 | 6 | 80 | 102 | 6.34 | 40.7 |  | E (501 ≤ E ≤ 10.000)
8 | CN(c1ccc(-c2ccc(-n3ccnn3)cc2O)nn1)[C@@H]1C[C@H]2CC[C@H](N2)[C@@H]1F [Compound 61A, 2-(6-(((1S,2S,3R,5R)-2-fluoro-8-azabicyclo[3.2.1]octan-3-yl)(methyl)amino)pyridazin-3-yl)-5-(1H-1,2,3-triazol-1-yl)phenol] |  | 16 to 50 | 14 | 91 | 88 | 4.29 | 60.3 | 16 to 50 | 0.01 to 15 |  |  |  |  |  |  |  |  | 
9 | CN(c1ccc(-c2cc3oc(C(=O)N4CCC4)cc3cc2O)nn1)[C@H]1C[C@@H]2CC[C@H]([C@H]1F)N2C [Compound 107B, azetidin-1-yl(6-(6-(((1R,2R,3S,5S)-2-fluoro-8-methyl-8-azabicyclo[3.2.1]octan-3-yl)(methyl)amino)pyridazin-3-yl)-5-hydroxybenzofuran-2-yl)methanone] |  |  |  |  |  |  |  |  |  | 16 to 50 | 101 to 500 | 47 | 76 | 84 | 0.99 | 46.3 |  | E (501 ≤ E ≤ 10.000)
10 | CN(c1ccc(-c2cc3nnccc3cc2O)nn1)[C@@H]1C[C@H]2CC[C@H](N2)[C@@H]1F [Compound 89A, 7-(6-(((1S,2S,3R,5R)-2-fluoro-8-azabicyclo[3.2.1]octan-3-yl)(methyl)amino)pyridazin-3-yl)cinnolin-6-ol] |  | 101 to 500 | 51 | 92 | 106 | 1.31 | 67.3 | 101 to 500 | 16 to 50 |  |  |  |  |  |  |  |  | 
11 | COc1cn(-c2ccc(-c3ccc(N(C)[C@@H]4C[C@H]5CC(F)(F)[C@@H](C4)N5)nn3)c(O)c2)cn1 [Compound 19A, 2-(6-(((1S,3R,5R)-6,6-difluoro-8-azabicyclo[3.2.1]octan-3-yl)(methyl)amino)pyridazin-3-yl)-5-(4-methoxy-1H-imidazol-1-yl)phenol] |  | 51 to 100 | 6 | 81 | 94 | 10.1 | 56.6 | 51 to 100 | 0.01 to 15 |  |  |  |  |  |  |  |  | 
12 | CN(c1ccc(-c2cc(F)c(-n3ccnn3)cc2O)nn1)[C@H]1C[C@@H]2CC[C@H]([C@H]1F)N2C [Compound 103B, 4-fluoro-2-(6-(((1R,2R,3S,5S)-2-fluoro-8-methyl-8-azabicyclo[3.2.1]octan-3-yl)(methyl)amino)pyridazin-3-yl)-5-(1H-1,2,3-triazol-1-yl)phenol] |  |  |  |  |  |  |  |  |  | 51 to 100 | 101 to 500 | 4 | 95 | 94 | 12.6 | 49.1 |  | E (501 ≤ E ≤ 10.000)
